Numbers after ± are expanded uncertainties.
Conditions: for mass density: Liquid

COP(=O)([O-])OC.Cn1cc[n+](C)c1 [1,3-dimethylimidazolium dimethylphosphate]
surface tension liquid-gas (293.15 K): 47.42 ± 1.6 mN/m
mass density (293.15 K): 1244 ± 5.7 kg/m3
surface tension liquid-gas (298.15 K): 47.09 ± 1.6 mN/m
mass density (298.15 K): 1242 ± 5.7 kg/m3
surface tension liquid-gas (303.15 K): 47.11 ± 1.6 mN/m
mass density (303.15 K): 1238.7 ± 5.6 kg/m3
surface tension liquid-gas (308.15 K): 46.28 ± 1.6 mN/m
mass density (308.15 K): 1234.9 ± 5.5 kg/m3
surface tension liquid-gas (313.15 K): 45.11 ± 1.6 mN/m
mass density (313.15 K): 1229.7 ± 5.5 kg/m3
surface tension liquid-gas (318.15 K): 44.44 ± 1.6 mN/m
mass density (318.15 K): 1226.8 ± 5.4 kg/m3
surface tension liquid-gas (323.15 K): 43.01 ± 1.5 mN/m
mass density (323.15 K): 1223.9 ± 5.4 kg/m3
surface tension liquid-gas (328.15 K): 42.58 ± 1.5 mN/m
mass density (328.15 K): 1218.5 ± 5.3 kg/m3
surface tension liquid-gas (333.15 K): 41.88 ± 1.5 mN/m
mass density (333.15 K): 1214.8 ± 5.2 kg/m3
surface tension liquid-gas (338.15 K): 41.33 ± 1.4 mN/m
mass density (338.15 K): 1210.4 ± 5.1 kg/m3

CCOP(=O)([O-])OCC.CCn1cc[n+](C)c1 [1-ethyl-3-methylimidazolium diethyl phosphate]
surface tension liquid-gas (293.15 K): 36.1 ± 1.3 mN/m
mass density (293.15 K): 1141.3 ± 3.9 kg/m3
surface tension liquid-gas (298.15 K): 35.88 ± 1.3 mN/m
mass density (298.15 K): 1140 ± 3.9 kg/m3
surface tension liquid-gas (303.15 K): 35.43 ± 1.3 mN/m
mass density (303.15 K): 1132.1 ± 3.8 kg/m3
surface tension liquid-gas (308.15 K): 35.3 ± 1.3 mN/m
mass density (308.15 K): 1129.7 ± 3.7 kg/m3
surface tension liquid-gas (313.15 K): 35.07 ± 1.3 mN/m
mass density (313.15 K): 1125.1 ± 3.7 kg/m3
surface tension liquid-gas (318.15 K): 34.61 ± 1.2 mN/m
mass density (318.15 K): 1120.4 ± 3.6 kg/m3
surface tension liquid-gas (323.15 K): 34.55 ± 1.2 mN/m
mass density (323.15 K): 1118 ± 3.5 kg/m3
surface tension liquid-gas (328.15 K): 34.21 ± 1.2 mN/m
mass density (328.15 K): 1112.9 ± 3.5 kg/m3
surface tension liquid-gas (333.15 K): 33.88 ± 1.2 mN/m
mass density (333.15 K): 1111.1 ± 3.4 kg/m3
surface tension liquid-gas (338.15 K): 33.75 ± 1.2 mN/m
mass density (338.15 K): 1108 ± 3 kg/m3

— the NIST ThermoML archive (doi:10.1016/j.jct.2010.08.002)
